Measured values reported in patent EP4775571A1, “LPAR1 ANTAGONIST AND USE THEREOF” (Haisco Pharmaceutical Group Co., Ltd., priority 2023, dated 2025).
Where two headings read alike, the source gives them in different places.

Legend:
LPAR1 = molecular target: T1, LPAR1 (Homo sapiens, UniProt Q92633); assay: Cell calcium flux assay (antagonist mode, LPA at EC80, FLIPR); assay type: cell-based
T1 construct: expressed in transfected cells; host or cells: CHO (CHO-LPA1 cells)
Description: • 1) The test compound was diluted to a 400X stock solution with DMSO in a 384-well plate. • 2) 1 µl of compound solution from step 1 was transferred into 39 ul of assay buffer to prepare a 10X working solution in a 384-well plate using a Bravo automated liquid handling platform. • 3) CHO-LPA1 cells were cultured in F12 medium (10% FBS). • 4) When cells reached 80% confluence, the cells were dissociated using 0.25% trypsin-EDTA. • 5) Cell density was determined and the cells were diluted to 4x10e5/ml using F12 (10% FBS). • 6) 30 µl of the cell suspension was dispensed into a 384-well plate (corning 3764#) using a multidrop automated dispenser, resulting in 12,000 cells per well. The plate was incubated at 37°C with 5% CO2 for 18-20 hours. • 7) The medium was replaced with 25 uL of serum-free medium and incubated overnight. • 8) 10 ul of 3.5X loading dye was added to each well of the cell plate. The plate was incubated in the dark at 37°C with 5% CO2 for 0.5-1 hours. • 9) After incubation, 5 µl of the 10X working solution from step 2 was transferred to the cell plate. • 10) The cell plate was incubated in the dark at 25°C for 15 minutes, and then the calcium signals were read. • 11) A 5X agonist (LPA) working solution in 1X HBSS+20 mM HEPES+0.1% BSA was prepared in a 384-well assay plate (greiner 784075#), with at least 20 µl per well. The agonist concentration used in this assay was determined based on the dose-response curve from a prior agonist mode experiment, with the EC80 value serving as the final agonist concentration. • 12) Data were read and saved using FLIPR at room temperature with the specified settings. • 13) The signal values were plotted against compound concentrations, and the curve fitting was performed and the IC50 values were calculated using nonlinear regression analysis in GraphPad Prism software.
IC50 values are represented by grades A, B, C, and D, where A represents 0 < IC50 ≤ 10 nM, B represents 10 nM < IC50 ≤ 50 nM, C represents 50 nM < IC50 ≤ 100 nM, and D represents IC50 > 100 nM. Table 1 Antagonistic activity of the compounds of the present invention against LPAR1

[1] = Pharmacokinetic test in mice; assay type: in vivo, C57 mice; settings: for pharmacokinetic characteristics in mice: conclusion in words; for Vd: read-out: Vdss
Description: 2.1 Experimental animals: Male C57 mice, 20-25 g, 6 mice/compound, purchased from Chengdu Ddossy Experimental Animals Co., Ltd.
2.2 Experimental design: On the day of the experiment, the C57 mice were randomly grouped according to their body weights. The animals were fasted with water available for 12-14 h one day before the administration, and were fed 4 h after the administration. Table 2. Administration information
Before and after administration, 0.06 mL of blood was taken from the orbit under isoflurane anaesthesia and placed in an EDTAK2 centrifuge tube. The tube was centrifuged at 5000 rpm at 4°C for 10 min, and plasma was collected. The blood collection time points for the intravenous administration group and oral gavage administration group were: 0 min, 5 min, 15 min, 30 min, 1 h, 2 h, 4 h, 6 h, 8 h, and 24 h. Before analysis and detection, all samples were stored at -80°C, and the samples were quantitatively analysed by LC-MS/MS. Table 3. Pharmacokinetic parameters of test compounds in plasma of mice

[2] = CHO-LPA1 cells, calcium flux, grades, read-out: LPAR1 IC50
[3] = mouse, iv, mice, i.v. (1 mg/kg), plasma
[4] = mouse, po, mice, i.g. (3 mg/kg), plasma
[5] = antagonistic activity against the LPAR1 receptor, read-out: IC50 values

T1 sequence (Q92633 whole entry): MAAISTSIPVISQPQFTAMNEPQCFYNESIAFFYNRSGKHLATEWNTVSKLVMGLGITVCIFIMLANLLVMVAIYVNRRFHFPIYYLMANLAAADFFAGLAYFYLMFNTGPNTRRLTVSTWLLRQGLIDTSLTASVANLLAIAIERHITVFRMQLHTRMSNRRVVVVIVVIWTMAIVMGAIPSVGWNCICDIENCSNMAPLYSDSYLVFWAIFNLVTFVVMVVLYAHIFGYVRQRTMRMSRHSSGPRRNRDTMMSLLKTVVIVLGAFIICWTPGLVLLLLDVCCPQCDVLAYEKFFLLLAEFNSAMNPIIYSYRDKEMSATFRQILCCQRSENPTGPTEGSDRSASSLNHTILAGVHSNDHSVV

Row | IC50 (LPAR1; [2]) | Structure (SMILES) | IC50 (LPAR1; [5]) | other results
1 | < 10 nM | C=C1CC(N(C)C(=O)OCc2c(-c3ccc(NC(=O)C4C(C(=O)O)C4(F)F)c(C)n3)nnn2C)C1 (single isomer, unassigned) [Compound 34-2] |  | 
2 | < 10 nM | C=C1CC(CN(C)C(=O)OCc2c(-c3ccc(NC(=O)C4C(C(=O)O)C4(F)F)c(C)n3)nnn2C)C1 (single isomer, unassigned) [Compound 35-2] |  | 
3 | 10 to 50 nM | Cc1nc(-c2nnn(C)c2CNC(=O)OC2CC(=C(F)F)C2)ccc1OC1CCCCC(C(=O)O)C1 (single isomer, unassigned) [Compound 48-2] |  | 
4 | < 10 nM | C=C1CC(CN(C)C(=O)OCc2c(-c3ccc(O[C@H]4CCC[C@H](C(=O)O)C4)c(C)n3)nnn2C)C1 [Compound 5] | 2 nM | 
5 | < 10 nM | CC=C1CC(N(C)C(=O)OCc2c(-c3ccc(O[C@H]4CCC[C@H](C(=O)O)C4)c(C)n3)nnn2C)C1 (some centres unmarked) [Compound 7] | 2 nM | 
6 | < 10 nM | C=C1CC(COC(=O)NCc2c(-c3ccc(O[C@H]4CCC[C@H](C(=O)O)C4)c(C)n3)nnn2C)C1 [Compound 11] |  | 
7 | 10 to 50 nM | Cc1nc(-c2nnn(C)c2COC(=O)N(C)CC2CC(=C(F)F)C2)ccc1O[C@H]1CCC[C@H](C(=O)O)C1 (some centres unmarked) [Compound 13] |  | 
8 | < 10 nM | Cc1nc(-c2nnn(C)c2COC(=O)N(C)CCOC(F)(F)F)ccc1O[C@H]1CCC[C@H](C(=O)O)C1 [Compound 14] |  | 
9 | < 10 nM | CC(C)=C1CC(N(C)C(=O)OCc2c(-c3ccc(O[C@H]4CCC[C@H](C(=O)O)C4)c(C)n3)nnn2C)C1 (some centres unmarked) [Compound 18] |  | 

Row | Structure (SMILES) | IC50 (LPAR1; [2]) | IC50 (LPAR1; [5]) | other results
10 | C=C1CC(N(C)C(=O)OCc2c(-c3ccc(OCC4C(C(=O)O)C4(F)F)c(C)n3)nnn2C)C1 (single isomer, unassigned) [Compound 32-1] | < 10 nM |  | 
11 | C=C1CC(N(C)C(=O)OCc2c(-c3ccc(OCC4C(C(=O)O)C4(F)F)c(C)n3)nnn2C)C1 (single isomer, unassigned) [Compound 32-4] | < 10 nM |  | 
12 | C=C1CC(N(C)C(=O)OCc2c(-c3ccc(O[C@H]4CCC[C@H](C(=O)O)C4)c(C)n3)nnn2C)C1 [Compound 4] | < 10 nM | 2 nM | pharmacokinetic characteristics in mice [1]: excellent pharmacokinetic characteristics; C0 or Cmax ([1]; mice, i.g. (3 mg/kg), plasma): 687 ± 331 ng/mL; C0 or Cmax ([1]; mice, i.v. (1 mg/kg), plasma): 1066 ± 134 ng/mL; AUC(0-t) [1, 3]: 510 ± 95 ng·h/mL; clearance [1, 3]: 33.2 ± 5.6 mL/min/kg; Vd [1, 3]: 5.11 ± 1 L/kg; bioavailability ([1]; mouse, plasma, po, mice, i.g. (3 mg/kg)): ≥ 98%; AUC(0-t) [1, 4]: 2180 ± 672 ng·h/mL
13 | Cc1nc(-c2nnn(C)c2COC(=O)N(C)C2CC(=C(F)F)C2)ccc1O[C@H]1CCC[C@H](C(=O)O)C1 (some centres unmarked) [Compound 12] | < 10 nM | 2 nM | pharmacokinetic characteristics in mice [1]: excellent pharmacokinetic characteristics; C0 or Cmax ([1]; mice, i.g. (3 mg/kg), plasma): 581 ± 18 ng/mL; C0 or Cmax ([1]; mice, i.v. (1 mg/kg), plasma): 1938 ± 258 ng/mL; AUC(0-t) [1, 3]: 962 ± 131 ng·h/mL; clearance [1, 3]: 17.5 ± 2.4 mL/min/kg; Vd [1, 3]: 2.57 ± 0.23 L/kg; AUC(0-t) [1, 4]: 1450 ± 81 ng·h/mL
14 | Cc1nc(-c2nnn(C)c2COC(=O)N(C)OC2CCC2)ccc1O[C@H]1CCC[C@H](C(=O)O)C1 [Compound 15] | 10 to 50 nM |  | 
15 | C=C1CCC(CN(C)C(=O)OCc2c(-c3ccc(O[C@H]4CCC[C@H](C(=O)O)C4)c(C)n3)nnn2C)CC1 [Compound 19] | < 10 nM | 2 nM | 
